Assays:
[1] = Stability of Abamectin in water exposed to light at various pH-values (HPLC); type: physicochemical
Method: The stability of Abamectin in water exposed to light at various pH-values was determined. 194.4 mg of abamectin was dissolved in 10 ml methanol and 1 ml of the solution transferred to 100 ml of demineralised water and a part of this transferred to a buffer solution. […]

[2] = Stability of Abamectin in water at various pH-values and temperatures (dark, HPLC); type: physicochemical
Method: The stability of Abamectin in water at various pH-values and temperatures was determined. 194.4 mg of abamectin was dissolved in 10 ml methanol and 1 ml of the solution transferred to 100 ml of de-mineralised water and a part of this was transferred to a buffer solution. The sample was kept in the dark and the solution analysed using a HPLC.

Abamectin
Abamectin concentration ([1]; pH 4.0, 25° C., Dark, 7 days): 3.130 ppm | Abamectin concentration ([1]; pH 4.0, 25° C., Dark, 14 days): 2.782 ppm | Abamectin concentration ([1]; pH 4.0, 25° C., Dark, 21 days): 2.566 ppm | Abamectin concentration ([1]; pH 4.0, 25° C., Dark, 28 days): 2.524 ppm | Abamectin concentration ([1]; pH 4.0, 25° C., Dark, Initial): 3.495 ppm | Abamectin concentration ([1]; pH 4.0, 25° C., Light (5000-6000 lux), 7 days): 2.923 ppm | Abamectin concentration ([1]; pH 4.0, 25° C., Light (5000-6000 lux), 14 days): 2.332 ppm | Abamectin concentration ([1]; pH 4.0, 25° C., Light (5000-6000 lux), 21 days): 1.961 ppm | Abamectin concentration ([1]; pH 4.0, 25° C., Light (5000-6000 lux), 28 days): 1.666 ppm | Abamectin concentration ([1]; pH 4.0, 25° C., Light (5000-6000 lux), Initial): 3.495 ppm | Abamectin concentration ([1]; pH 7.0, 25° C., Dark, 7 days): 3.188 ppm | Abamectin concentration ([1]; pH 7.0, 25° C., Dark, 14 days): 3.040 ppm | Abamectin concentration ([1]; pH 7.0, 25° C., Dark, 21 days): 2.829 ppm | Abamectin concentration ([1]; pH 7.0, 25° C., Dark, 28 days): 2.676 ppm | Abamectin concentration ([1]; pH 7.0, 25° C., Dark, Initial): 3.327 ppm | Abamectin concentration ([1]; pH 7.0, 25° C., Light (5000-6000 lux), 7 days): 2.941 ppm | Abamectin concentration ([1]; pH 7.0, 25° C., Light (5000-6000 lux), 14 days): 2.529 ppm | Abamectin concentration ([1]; pH 7.0, 25° C., Light (5000-6000 lux), 21 days): 2.223 ppm | Abamectin concentration ([1]; pH 7.0, 25° C., Light (5000-6000 lux), 28 days): 2.034 ppm | Abamectin concentration ([1]; pH 7.0, 25° C., Light (5000-6000 lux), Initial): 3.327 ppm | Abamectin concentration ([1]; pH 9.0, 25° C., Dark, 7 days): 3.005 ppm | Abamectin concentration ([1]; pH 9.0, 25° C., Dark, 14 days): 2.596 ppm | Abamectin concentration ([1]; pH 9.0, 25° C., Dark, 21 days): 2.380 ppm | Abamectin concentration ([1]; pH 9.0, 25° C., Dark, 28 days): 2.287 ppm | Abamectin concentration ([1]; pH 9.0, 25° C., Dark, Initial): 3.555 ppm | Abamectin concentration ([1]; pH 9.0, 25° C., Light (5000-6000 lux), 7 days): 3.163 ppm | Abamectin concentration ([1]; pH 9.0, 25° C., Light (5000-6000 lux), 14 days): 2.810 ppm | Abamectin concentration ([1]; pH 9.0, 25° C., Light (5000-6000 lux), 21 days): 2.360 ppm | Abamectin concentration ([1]; pH 9.0, 25° C., Light (5000-6000 lux), 28 days): 2.173 ppm | Abamectin concentration ([1]; pH 9.0, 25° C., Light (5000-6000 lux), Initial): 3.555 ppm | Abamectin concentration ([2]; pH 4.0, 25 °C, 7 days): 3.130 ppm | Abamectin concentration ([2]; pH 4.0, 25 °C, 14 days): 2.782 ppm | Abamectin concentration ([2]; pH 4.0, 25 °C, 21 days): 2.566 ppm | Abamectin concentration ([2]; pH 4.0, 25 °C, 28 days): 2.524 ppm | Abamectin concentration ([2]; pH 4.0, 25 °C, Initial): 3.495 ppm | Abamectin concentration ([2]; pH 4.0, 50 °C, 7 days): 1.054 ppm | Abamectin concentration ([2]; pH 4.0, 50 °C, 14 days): 0.383 ppm | Abamectin concentration ([2]; pH 4.0, 50 °C, 21 days): 0.123 ppm | Abamectin concentration ([2]; pH 4.0, 50 °C, 28 days): 0.0609 ppm | Abamectin concentration ([2]; pH 4.0, 50 °C, Initial): 3.495 ppm | Abamectin concentration ([2]; pH 7.0, 25 °C, 7 days): 3.188 ppm | Abamectin concentration ([2]; pH 7.0, 25 °C, 14 days): 3.040 ppm | Abamectin concentration ([2]; pH 7.0, 25 °C, 21 days): 2.829 ppm | Abamectin concentration ([2]; pH 7.0, 25 °C, 28 days): 2.676 ppm | Abamectin concentration ([2]; pH 7.0, 25 °C, Initial): 3.327 ppm | Abamectin concentration ([2]; pH 7.0, 50 °C, 7 days): 2.952 ppm | Abamectin concentration ([2]; pH 7.0, 50 °C, 14 days): 2.780 ppm | Abamectin concentration ([2]; pH 7.0, 50 °C, 21 days): 2.194 ppm | Abamectin concentration ([2]; pH 7.0, 50 °C, 28 days): 1.949 ppm | Abamectin concentration ([2]; pH 7.0, 50 °C, Initial): 3.327 ppm | Abamectin concentration ([2]; pH 9.0, 25 °C, 7 days): 3.005 ppm | Abamectin concentration ([2]; pH 9.0, 25 °C, 14 days): 2.596 ppm | Abamectin concentration ([2]; pH 9.0, 25 °C, 21 days): 2.380 ppm | Abamectin concentration ([2]; pH 9.0, 25 °C, 28 days): 2.287 ppm | Abamectin concentration ([2]; pH 9.0, 25 °C, Initial): 3.555 ppm | Abamectin concentration ([2]; pH 9.0, 50 °C, 7 days): 1.265 ppm | Abamectin concentration ([2]; pH 9.0, 50 °C, 14 days): 0.519 ppm | Abamectin concentration ([2]; pH 9.0, 50 °C, 21 days): 0.205 ppm | Abamectin concentration ([2]; pH 9.0, 50 °C, 28 days): 0.0628 ppm | Abamectin concentration ([2]; pH 9.0, 50 °C, Initial): 3.555 ppm

From patent publication US20080125480A1, “Oil-In-Water Formulation Of Avermectins” (priority 2004, published 2008)
